Measurements reported in patent publication US4481198A, “Vitamin D metabolism inhibitor” (Wisconsin Alumni Research Foundation, priority 1984, dated 1984).
“And” between values parts separate entries of the source, which are not always exact repeats. Identical values can stand only once. “Also recorded” adds a separate entry of the source.

How the values were obtained:
[1] = test system: 25-hydroxylation of vitamin D3; conditions: high doses required; cited from earlier work
[2] = test system: enzymatic 25-hydroxylation of vitamin D3 (microsomal enzyme system from rat liver); assay: in vitro 25-hydroxylation of vitamin D3 in rat liver microsomal enzyme system; assay type: biochemical
Description: Male rats, obtained as weanlings (Holtzman, Madison, WI) were maintained on a vitamin D-deficient 0.5% calcium and 0.3% phosphorus diet for 4-6 weeks prior to use for in vitro 25-hydroxylation assays. Animals were fasted 18 h to deplete glycogen stores prior to study.
The microsomes were prepared by the method of Madhok and DeLuca (Biochem. J. 184, 491 (1979)). Livers were homogenized in 3 vol of 0.25M sucrose using a Potter-Elvehjem homogenizer fitted with a Teflon pestle. All centrifugation steps were done using a type 30 rotor and a Beckman L5-50 ultracentrifuge (Beckman Instruments, Lincolnwood, Ill.). […]
The work-up of the incubation mixture involved separation of the organic phase, and evaporation of solvent; the residue was then taken up in hexane:CHCl3 :MeOH (90:10:5) and applied to a Sephadex LH-20 column (Pharmacia, Piscataway, N.J.) (0.7×12 cm). […] The radioactivity in the 25-OH-D3region was used as a measure of enzyme activity and the UV peak (254 nm) as a measure of recovery. Radioactivity was determined on a Packard Instruments 3255 liquid scintillation counter using a toluene counting solution with 0.4% p-bis-[2-(5-phenyloxazolyl)]-benzene and 0.03% dimethyl-1,4-bis-[2-(5-phenyloxazolyl)]-benzene. […] The enzyme activity was expressed as picomole product (25-OH-D3) produced per milligram protein per 2 hours.

Compound | inhibition of 25-hydroxylation of vitamin D3 by known antagonists (in words) [1] | 25-OH-D3 Formation ([2]; [S] 200 nM vitamin D3, [I] 500 nM, inhibitor preincubated at 37° C. for 10 min, controls without inhibitor 0.46, 0.24, 0.36) | inhibition of 25-OH-D3 formation from vitamin D3 (in words) ([2]; rat liver microsomal system, 500 nM inhibitor, 2.5 times the substrate concentration)
CC(C)CCC[C@@H](C)[C@H]1CC[C@H]2/C(=C/C=C3/C[C@@H](O)CCC3CO)CCC[C@]12C (stereo partly drawn) [19-hydroxy-10,19-dihydro-vitamin D3] | partial inhibition | – | –
C=C1CC[C@H](O)C/C1=C/C=C1\CCC[C@]2(C)[C@@H]([C@H](C)CCC(=NO)C(C)C)CC[C@@H]12 [24-(NOH)D3, vitamin D3-24-oxime] | – | 0.09 pmol/2h/mg protein and 0.05 pmol/2h/mg protein | markedly suppressed; also recorded: dramatically suppresses
